Measured values taken from PMC12873548, “D-amino acid substitution and cyclization enhance the stability and antimicrobial activity of arginine-rich peptides” (Microbiology, 2026).
≈ marks a conversion by molar mass, not a printed value. Residues, ends and D or L forms follow the SMILES beside them.

How the values were obtained:
[1] = system: E. coli (O157:H7); format: cell-based, Escherichia coli
Description: (§1) The MIC of arginine-based peptides was assessed using the microbroth dilution approach. Our in vitro screening included a panel of Gram-negative bacteria, Escherichia coli (ATCC 25922 and enterohaemorrhagic O157:H7) and Pseudomonas aeruginosa (PA01 and the drug-resistant strain NCTC 13437), and Gram-positive bacteria (Staphylococcus aureus ATCC 12600). Five-millilitre overnight cultures in Lysogeny broth, prepared from single isolated colonies, were diluted to 5×10^6 c.f.u. ml^−1 mid-log phase in Mueller–Hinton (MH) broth. Next, peptide concentrations (0 to 1 mM) were serially diluted twofold in 96-well plates and incubated overnight at 37 °C with the tested bacterial strains. In each case, the MIC was determined as the lowest peptide concentration at which no detectable bacterial growth was observed, employing an absorbance-based assay using a Tecan Spark® multimode plate reader. Subsequently, 10 µl aliquots from each peptide dilution were transferred to MH agar (1.5%) plates to determine the minimum bactericidal concentration (MBC) which was assessed by establishing at which concentration no visible growth of bacteria (assessed via colony formation) on the plate was observed.

[2] = system: E. coli (25922); format: cell-based, Escherichia coli
Description: as §1
(§2) The antimicrobial activity and structural stability of arginine-rich peptides were evaluated in the presence of human serum (20% and 50 %) and 5 µM Sequencing Grade Modified Trypsin (SGMT, Promega). Briefly, fresh human blood was collected in EDTA tubes and allowed to clot at room temperature for 1 h. Serum was then collected following centrifugation at 2,000 r.p.m. for 10 min at 4 °C. Peptides were incubated with 20%, 50% human serum and 5 µM SGMT in 50 mM Tris-HCl buffer (1 mM CaCl₂, pH 7.6) for 24 h at 37 °C. After the incubation period, the solutions were further incubated with E. coli (ATCC 25922 and O157:H7), P. aeruginosa (PA01, NCTC13437) and S. aureus (ATCC12600), and the MIC was assessed as described in the ‘Antibacterial assessment’ section. Additionally, the samples were analysed using electrospray ionization MS to monitor structural changes based on the molecular weight of the peptides.

[3] = target: T1, Sequencing Grade Modified Trypsin (Sus scrofa, UniProt P00761); assay: Stability with trypsin by LC-MS; format: in vitro ADME; settings: 5 µM SGMT trypsin, 50 mM Tris-HCl, 1 mM CaCl2, pH 7.6, 24 h, 37 °C; read-out LC-MS (ESI)
T1 construct: purchased Promega
T1 sequence (P00761 9-231): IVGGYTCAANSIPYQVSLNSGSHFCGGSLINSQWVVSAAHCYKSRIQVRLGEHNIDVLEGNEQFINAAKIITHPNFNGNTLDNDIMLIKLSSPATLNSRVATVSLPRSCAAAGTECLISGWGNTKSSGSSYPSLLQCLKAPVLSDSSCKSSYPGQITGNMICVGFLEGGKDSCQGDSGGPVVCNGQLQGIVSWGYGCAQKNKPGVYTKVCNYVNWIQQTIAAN
Description: as §2

[4] = system: E. coli ATCC 25922; assay: Membrane integrity, PI uptake; format: cell-based, Escherichia coli; settings: E. coli ATCC 25922, 5 µg ml−1 PI, 1 h
Description: Propidium iodide (PI) uptake was used to assess the permeabilization of the bacterial membrane upon incubation with peptides. E. coli and S. aureus cells, adjusted to an OD600 of 0.5, were placed into a 96-well plate containing 5 mM HEPES buffer (pH 7.4, supplemented with 5 mM glucose) and incubated with 5 µg ml^−1 PI for 15 min. Afterwards, different peptide concentrations were added, and PI uptake was rapidly measured every 10 min over a 1 h period using a Tecan Spark® microplate reader (λex=515 nm, λem=620 nm).

[5] = system: E. coli; assay: Intracellular ROS, DCFH-DA; format: cell-based, Escherichia coli; settings: peptides at MIC, 1/2× MIC, 1/4× MIC, 4 h, 37 °C
Description: Total reactive oxygen species (ROS) was measured using an oxidation-sensitive fluorescent dye, 2′,7′-dichlorodihydrofluorescein diacetate (DCFH-DA). For this assay, E. coli and S. aureus cultures were adjusted to an OD600 of 0.3 in MH broth and exposed to peptides at MIC, 1/2× MIC and 1/4× MIC, or to positive control (5 mM H2O2) for 4 h at 37 °C. Cells were centrifuged at 4,000 r.p.m. for 10 min at 4 °C and resuspended in PBS containing 10 µM DCFH-DA. The suspension was incubated under the same conditions for 30 min. Finally, cells were washed twice with PBS, and 150 µl aliquots were transferred to 96-well plates. Oxidized DCF products were detected using a Tecan Spark® microplate reader with excitation at 485 nm and emission at 530 nm. Additionally, 10 µl of E. coli cells incubated with D-R4F4 at MIC, 1/2×MIC and 1/4×MIC was collected for imaging using an All-in-One Fluorescence Microscope (Keyence, Japan).

[6] = system: P. aeruginosa (PAO1) biofilms; assay: Disruption of pre-established biofilms, resazurin; format: cell-based, Pseudomonas aeruginosa; settings: 48 h P. aeruginosa biofilm, peptide at 2× MIC, 18 h, 37 °C
Description: To establish mature P. aeruginosa (PAO1) biofilms, an overnight culture was diluted to an OD600 of 0.01 in 120 µl of M63 medium (supplemented with 1 mM MgSO₄ and 23 µM L-arginine) and incubated in flat-bottom 96-well plates at 37 °C for 48 h. Afterwards, individual wells containing biofilm were rinsed three times with PBS, and 150 µl MH broth was added with either 0.5× and 2× MIC peptides. 100 µg mL^−1 resazurin was added to measure the biofilm metabolic activity for 18 h at 37 °C using a Tecan Spark® microplate reader (λex=520 nm/λem=590 nm). c.f.u. counts were established by plating aliquots of a dilution series onto MH agar followed by overnight incubation at 37 °C. Residual biofilm biomass was subsequently quantified using 0.1% CV staining.
Three-dimensional images of biofilm communities, with and without peptide exposure, were captured using an All-in-One Fluorescence Microscope (Keyence, Japan). Pre-established biofilms in a 96-well plate were incubated with 2× MIC peptides for 3 h at 37 °C. Dual staining was performed with 5 µl of SYTO 9/PI for 30 min. Biofilm thickness was assessed through 2.0 µm optical cross-sections with 50 µm pinholes.

**Q.** For `N=C(N)NCCC[C@@H]1NC(=O)[C@H](CCCNC(=N)N)NC(=O)[C@H](CCCNC(=N)N)NC(=O)[C@H](Cc2ccccc2)NC(=O)[C@H](Cc2ccccc2)NC(=O)[C@H](Cc2ccccc2)NC(=O)[C@H](Cc2ccccc2)NC(=O)[C@H](CCCNC(=N)N)NC1=O` [CP-R4F4] (cyclo(RRRRFFFF)), which MBC ([1]; 10 µl aliquots plated on MH agar, no visible colonies) is on record?
**A.** 62.5 µM (≈ 75.8 µg/mL)

**Q.** And the MIC ([1]; MH broth, 5×10^6 cells, 24 h, 37 °C, absorbance 600 nm, triplicate)?
**A.** 31.25 µM (≈ 37.9 µg/mL)

**Q.** What about the “MIC, Control” value ([2]; control without serum or trypsin) of the same molecule?
**A.** 31.25 µM (≈ 37.9 µg/mL)

**Q.** And the “MIC, Trypsin” value ([2]; peptide incubated with 5 µM SGMT trypsin in 50 mM Tris-HCl, 1 mM CaCl2, pH 7.6, 24 h at 37 °C before MIC)?
**A.** 31.25 µM (≈ 37.9 µg/mL)

**Q.** And the “MIC, 20% human serum” value ([2]; peptide incubated with 20% human serum 24 h at 37 °C before MIC)?
**A.** 31.25 µM (≈ 37.9 µg/mL)

**Q.** What about the “MIC, 50% human serum” value ([2]; peptide incubated with 50% human serum 24 h at 37 °C before MIC) of the same molecule?
**A.** 125 µM (≈ 152 µg/mL)

**Q.** What about the “Stability with trypsin (LC chromatogram and mass spectrum)” value [3] of the same molecule?
**A.** appeared at the same retention time in both the absence and presence of proteases

**Q.** And the “PI uptake, membrane integrity” value [4]?
**A.** membrane-disruptive activity

**Q.** And the “Intracellular ROS levels” value [5]?
**A.** highest modulation of ROS levels

**Q.** What about the “Disruption of mature biofilm (resazurin metabolic activity)” value [6] of the same molecule?
**A.** significantly disrupted
